Test results as given in patent US20230286956A1 (DUKSUNG WOMEN'S UNIVERSITY INDUSTRY-ACADEMIC COOPERATION …, priority 2020, published 2023).

Columns and labels:
[1] = in vivo; design: species or system SD rats; conditions: SD, rat, po
Method: The bioavailability (BA) and pharmacokinetic properties of the compounds of the present invention were evaluated in an animal model. The compounds were administered to 8-week-old SD rats (300 to 350 g) at a dose of 2 to 5 mg/kg through oral and intravenous administration routes. After administration, blood was collected at regular time intervals and the time course of blood concentration was analyzed.

[2] = test system: wild-type red mold strain GZ3639; assay: Inhibition of spore germination / reactive oxygen species generation through NOX enzyme inhibition in red mold; assay type: cell-based; conditions: 24 h, read-out: IC50 (µM), compound concentration at which the spore germination inhibition rate was 50%
Method: When NADPH oxidase (NOX), which is involved in the generation of reactive oxygen species in red mold, is inhibited, normal mycelial growth is inhibited, abnormal form of monocyclic conidia is formed, and germination is inhibited. The abnormal phenotype caused by the reduction of reactive oxygen species in red mold can be easily observed under an optical microscope. Through this, the ability to inhibit generation of reactive oxygen species through NOX inhibition was evaluated.
Specifically, for the evaluation of compound activity, 0.1 mM of the compound was added to a minimum medium (MM20) spore suspension diluted to ⅕. Spores ([…]) of wild-type red mold strain GZ3639 were inoculated into the medium and cultured at 25° C. for 24 h, followed by microscopic observation. Compounds having a germination inhibition rate and microcycle conidiation to be 50% or more of those in normal germination were selected, and their activities were evaluated at concentrations of 50 µM, 25 µM, and 10 µM. At this time, the activity of substances having a germination inhibition rate of 95% at 10 µM was further evaluated at concentrations of 5 µM, 1 µM, 0.5 µM, and 0.1 µM. Based on the result of this evaluation, the compound concentration (inhibitory concentration 50%, IC50) at which the spore germination inhibition rate was 50% was determined.

[3] = test system: substantia nigra dopaminergic neurons; assay: Inhibition of dopaminergic nerve cell death in MPTP animal model of Parkinson's disease (tyrosine hydroxylase immunostaining); assay type: in vivo, C57B16/J mice; conditions: Evaluations 3 and 4: intraperitoneal 5 mg/kg, 1 week before and after MPTP
Method: The dopaminergic neuronal cell protecting effect of the compound of the present invention was evaluated in an animal model of Parkinson’s disease. The animal model used was 7-week-old C57B16/J mice (23 to 25 g), to which MPTP (15 mg/kg) was administered 4 times at 1.5 hour intervals. For 1 to 2 days after administration, behavior was noticeably slowed and gradually recovered. In 1 week after MPTP administration, behavior was almost normalized to a level similar to that of normal mice.
In order to evaluate the efficacy of the compounds of the present invention, Compounds 1aaa (Compound 1), lace (Compound 27), 1ahe (Compound 44) and 1aje (Compound 62) were each administered at a dose of 5 mg/kg for 1 week, then MPTP (15 mg/kg x 4 times) was injected. These compounds were additionally administered for 1 week, and then dopamine innervation in the substantia nigra region was analyzed through immunostaining.
Specifically, selegiline, 1aaa, lace, 1ahe, 1aje, and apocynin were administered at a dose of 5 mg/kg for 7 days, then MPTP (15 mg/kg x 4 times) was administered to induce damage to dopaminergic neurons. After 7 days of additional administration of the compounds at the same dose, the animals were sacrificed. Immunostaining was performed using tyrosine hydroxylase antibody to measure the survival rate of substantia nigra dopaminergic neurons. After immunostaining, the number of surviving dopaminergic neurons was analyzed. The results are illustrated in FIG. 8.
In order to evaluate the efficacy of the compounds of the present invention, Compounds 1abv (Compound 22), 1abw (Compound 23), and 1ahs (Compound 52) were each intraperitoneally administered at a dose of 5 mg/kg for 1 week or orally administered at a dose of 50 mg/kg, then MPTP (15 mg/kg x 4 times) was injected. These compounds were additionally administered for 1 week, and then dopamine innervation in the substantia nigra region was analyzed through immunostaining. The results are illustrated in FIG. 9.
(§1) In order to evaluate the dopaminergic neuroprotective effect of the compounds of the present invention, Compounds 1aja (Compound 59) and 1abk (Compound 17) were each intraperitoneally administered at a dose of 5 mg/kg for 1 week, then MPTP (15 mg/kg x 4 times) was injected. These compounds were additionally administered for 1 week. After immunostaining using brain slices from each group, surviving dopaminergic neurons were photographed under a microscope and analyzed. The results are illustrated in FIG. 10.
as §1, with “1ajs” for “1aja”, “63), 1ajy (Compound 67),” for “59)”, “1aqj” for “1abk”, “85)” for “17)”, “11.” for “10.”

[4] = Single acute toxicity evaluation 2 (2000 mg/kg oral); assay type: in vivo, ICR mice
Method: Acute toxicity properties after single administration of the compounds of the present invention were evaluated in an animal model.

In the case of `CN1C(=[Se])N(c2ccccc2)C(=O)/C1=C\c1ccc(O)cc1O` [Compound 1, 5-(2,4-dihydroxybenzylidene)-1-methyl-3-phenyl-2-selenoxoimidazolidine-4-on], the bioavailability [1] is reported as 13% and the IC50 [2] is reported as 20 µM.
For `Cc1ccc(N2C(=O)C(=Cc3ccc(N4CCCC4)cc3)N(C)C2=[Se])cc1` [Compound 1abk, 1-methyl-5-(4-pyrrolidine-1-yl)benzylidene-2-selenoxo-3-(4-tolyl)imidazolidine-4-on], the “survival rate of dopaminergic neurons, of that in the control group” value (“survival rate of dopaminergic neurons” below) [3] was 66%.
In the case of `CN1C(=[Se])N(CCc2ccccc2)C(=O)C1=Cc1ccc(N2CCOCC2)cc1` [Compound 1ahs], the “change in body weight” value ([4]; day 0) is reported as 100, the “change in body weight” value ([4]; day 2) is reported as 97.6 and the “change in body weight” value ([4]; day 4) is reported as 100.0. The “change in body weight” value ([4]; day 8) was 103.8, the “change in body weight” value ([4]; day 10) was 104.5 and the “change in body weight” value ([4]; day 14) was 105.0.
For `CCCCCCN1C(=O)C(=Cc2ccc(O)cc2O)N(C)C1=[Se]` [Compound 1aja], the “change in body weight” value ([4]; day 0) was 100, the “change in body weight” value ([4]; day 2) was 95.6 and the “change in body weight” value ([4]; day 4) was 102.8. The “change in body weight” value ([4]; day 8) was 105.8, the “change in body weight” value ([4]; day 10) was 107.8 and the “change in body weight” value ([4]; day 14) was 107.6. The “survival rate of dopaminergic neurons” value [3] was 76%.
In the case of `CN1C(=[Se])N(CCCN2CCOCC2)C(=O)C1=Cc1ccc(Cl)cc1` [Compound 1aqj], the “change in body weight” value ([4]; day 0) is reported as 100, the “change in body weight” value ([4]; day 2) is reported as 94.6 and the “change in body weight” value ([4]; day 4) is reported as 99.8. The “change in body weight” value ([4]; day 8) was 104.8, the “change in body weight” value ([4]; day 10) was 105.9 and the “change in body weight” value ([4]; day 14) was 106.6. For the same compound, the “survival rate of dopaminergic neurons” value [3] was 75.1%.
`Cc1ccc(N2C(=O)/C(=C\c3ccc(N4CCCCC4)cc3)N(C)C2=[Se])cc1` [Compound 15, 1-methyl-5-(4-piperidine-1-yl)benzylidene-3-(4-tolyl)-2-selenoxoimidazolidine-4-on] gave a bioavailability [1] of 11% and an IC50 [2] of 11 µM.
`Cc1ccc(N2C(=O)/C(=C\c3ccc(N4CCN(CCO)CC4)cc3)N(C)C2=[Se])cc1` [Compound 21, 5-(4-(4-(2-hydroxyethyl)piperazine-1-yl)benzylidene)-1-methyl-2-selenoxo-3-(4-tolyl)imidazoline-4-on] gave a bioavailability [1] of 11%.
In the case of `Cc1ccc(N2C(=O)/C(=C\c3ccc(NCCOCCO)cc3)N(C)C2=[Se])cc1` [Compound 22, 5-(4-((2-(2-hydroxyethoxy)ethyl)amino)benzylidene)-1-methyl-2-selenoxo-3-(4-tolyl)imidazoline-4-on], the bioavailability [1] is reported as 55% and the IC50 [2] is reported as 2.3 µM.
Work on `CCc1ccc(N2C(=O)/C(=C\c3cc(O)cc(O)c3)N(C)C2=[Se])cc1` [Compound 27, 5-(3,5-dihydroxybenzylidene)-3-(4-ethylphenyl)-1-methyl-2-selenoxoimidazolidine-4-on] yielded a bioavailability [1] of 31% and an IC50 [2] of 9 µM.
With `CN1C(=[Se])N(CCc2ccccc2)C(=O)/C1=C\c1cc(O)cc(O)c1` [Compound 44] the bioavailability [1] was 73% and the IC50 [2] was 1 µM.
Work on `CCCCCCN1C(=O)/C(=C\c2ccc(O)cc2O)N(C)C1=[Se]` [Compound 59, 5-(2,4-dihydroxybenzylidene)-3-hexyl-1-methyl-2-selenoxoimidazolidine-4-on] yielded a bioavailability [1] of 23% and an IC50 [2] of 0.68 µM.
In the case of `CCCCCN1C(=O)/C(=C\c2ccc(O)cc2O)N(C)C1=[Se]` [Compound 93, 5-(2,4-dihydroxybenzylidene)-1-methyl-3-pentyl-2-selenoxoimidazolidine-4-on], the IC50 [2] is reported as 2.9 µM.
For `CCN1C(=[Se])N(c2ccccc2)C(=O)/C1=C\c1ccc(O)cc1O` [Compound 95, 5-(2,4-dihydroxybenzylidene)-1-ethyl-3-phenyl-2-selenoxoimidazolidine-4-on], the IC50 [2] was 22 µM.
In the case of `CCN1C(=[Se])N(c2ccccc2)C(=O)/C1=C\c1cccc(O)c1O` [Compound 96, 5-(2,3-dihydroxybenzylidene)-1-ethyl-3-phenyl-2-selenoxoimidazolidine-4-on], the IC50 [2] is reported as 44 µM.
Work on `CCc1ccc(N2C(=O)/C(=C\c3ccc(Br)cc3)N(CC)C2=[Se])cc1` [Compound 101, 5-(4-bromobenzylidene)-1-ethyl-3-(4-ethylphenyl)-2-selenoxoimidazolidine-4-on] yielded an IC50 [2] of 45 µM.
Work on `CCc1ccc(N2C(=O)/C(=C\c3ccc(N4CCCC4)cc3)N(CC)C2=[Se])cc1` [Compound 102, 1-ethyl-3-(4-ethylphenyl)-5-(4-pyrrolidine-1-yl)benzylidene-2-selenoxoimidazolidine-4-on] yielded an IC50 [2] of 40 µM.
In the case of `O=C1/C(=C\c2cccc(O)c2O)N(Cc2ccccc2)C(=[Se])N1c1ccccc1` [Compound 104, 1-benzyl-5-(2,3-dihydroxybenzylidene)-3-phenyl-2-selenoxoimidazolidine-4-on], the IC50 [2] is reported as 23 µM.
With `O=C1/C(=C\c2ccc(O)c(O)c2)N(Cc2ccccc2)C(=[Se])N1c1ccccc1` [Compound 106, 1-benzyl-5-(3,4-dihydroxybenzylidene)-3-phenyl-2-selenoxoimidazolidine-4-on] the IC50 [2] was 34 µM.
With `O=C1/C(=C\c2cc(O)cc(O)c2)N(Cc2ccccc2)C(=[Se])N1c1ccccc1` [Compound 107, 1-benzyl-5-(3,5-dihydroxybenzylidene)-3-phenyl-2-selenoxoimidazolidine-4-on] the IC50 [2] was 23 µM.
Compound `CCc1ccc(N2C(=O)/C(=C\c3ccc(O)cc3O)N(Cc3ccccc3)C2=[Se])cc1` [Compound 108, 1-benzyl-5-(2,4-dihydroxybenzylidene)-3-(4-ethylphenyl)-2-selenoxoimidazolidine-4-on] has an IC50 [2] of 22 µM.
With `CCc1ccc(N2C(=O)/C(=C\c3ccc(O)c(O)c3)N(Cc3ccccc3)C2=[Se])cc1` [Compound 109, 1-benzyl-5-(3,4-dihydroxybenzylidene)-3-(4-ethylphenyl)-2-selenoxoimidazolidine-4-on] the IC50 [2] was 29 µM.
Compound `CCc1ccc(N2C(=O)/C(=C\c3cc(O)cc(O)c3)N(Cc3ccccc3)C2=[Se])cc1` [Compound 110, 1-benzyl-5-(3,5-dihydroxybenzylidene)-3-(4-ethylphenyl)-2-selenoxoimidazolidine-4-on] has an IC50 [2] of 23 µM.
`O=C1/C(=C\c2cccc(O)c2O)N(Cc2ccccc2)C(=[Se])N1c1ccc(Cl)cc1` [Compound 111, 1-benzyl-3-(4-chlorophenyl)-5-(2,3-dihydroxybenzylidene)-2-selenoxoimidazolidine-4-on] showed an IC50 [2] of 26 µM.
Work on `O=C1/C(=C\c2ccc(O)c(O)c2)N(Cc2ccccc2)C(=[Se])N1c1ccc(Cl)cc1` [Compound 112, 1-benzyl-3-(4-chlorophenyl)-5-(3,4-dihydroxybenzylidene)-2-selenoxoimidazolidine-4-on] yielded an IC50 [2] of 31 µM.
